Assay results reported in patent publication US20240165083A1, “TASIPIMIDINE FORMULATIONS AND USE THEREOF” (ORION CORPORATION, priority 2021, published 2024).

Experiments:
Type in all cases: in vivo, dog
[1] = test system: client-owned dogs suffering from travel anxiety; experiment: Clinical field study in dogs: travel anxiety; conditions: single oral dose 30 μg/kg approximately 1 hour before car travel
Experimental: (§1) Three randomized, double-blind, placebo-controlled, clinical field studies were conducted for evaluating the effectiveness and clinical safety of tasipimidine for the treatment of situational anxiety and fear-based behaviors in dogs triggered by events such as travel, noise, or owner departure. Across all three studies dogs were randomized to receive either 0.03 mg/kg of tasipimidine (n=131) or placebo (n=133) orally at home by the owner. Assessments were made using video (in the case of when left alone or car travel) or by the caretaker present during the fear inducing incident (in the case of noise anxiety). Both were assessed using a numerical rating scale with scores 1-5.
The third study was conducted in client-owned dogs suffering from travel anxiety. Dogs received a single dose of tasipimidine 30 μg/kg or placebo approximately 1 hour before car travel. The primary efficacy variable was the external observer's assessment of signs of anxiety and fear from video recordings. The owner assessed the treatment effect based on the dog's behavior during the first 10 minutes of car travel.

[2] = test system: client-owned dogs with a history of acute anxiety and fear associated with noise due to fireworks; experiment: Clinical field study in dogs: noise anxiety (fireworks); conditions: 30 μg/kg orally 1-3 times as needed, New Year's Eve
Experimental: as §1
The first study was conducted in client-owned dogs with a history of acute anxiety and fear associated with noise due to fireworks. Dogs receive tasipimidine 30 μg/kg or placebo 1-3 times as needed with at least 3 hours between doses during New Year's Eve. The primary efficacy variable was the owner's assessment of the effect of study treatment on the dog's signs of acute anxiety and fear due to fireworks. The assessment was made once at least 2 hours after the last dose or at 1:00 A.M., whichever occurred later.

[3] = test system: client-owned dogs suffering from separation anxiety; experiment: Clinical field study in dogs: separation anxiety; conditions: 30 μg/kg orally 1-3 times a day as needed, 5-7 days a week for 5 weeks
Experimental: as §1
The second study was conducted in client-owned dogs suffering from separation anxiety. Dogs received tasipimidine 30 μg/kg or placebo 1-3 times a day as needed 5-7 days a week for 5 weeks. The primary efficacy variable was the owner's assessment of the effect of the study treatment on acute anxiety related to the owner's departure. Dog owners assessed the effect of the study treatment on their dog's signs of separation anxiety from video recordings after returning home. The owner also took into account the signs of the dog's behavior during the separation (e.g., destruction and elimination) that were not visible in the video recording.

dogs = experiment: Clinical safety in the three clinical field studies in dogs; conditions: 30 μg/kg orally
Experimental: as §1

Compound: COc1cccc2c1CCOC2C1=NCCN1 (stereo not shown) [Tasipimidine, 2-(5-methoxyisochroman-1-yl)-4,5-dihydro-1H-imidazole]
- treatment effect compared with placebo: external observer's assessment of signs of anxiety and fear from video recordings [1]: statistically significant treatment effect in favor of tasipimidine
- treatment effect compared with placebo: owner's assessment of signs of acute anxiety and fear due to fireworks [2]: statistically significant treatment effect in favor of tasipimidine
- treatment effect compared with placebo: owner's assessment of acute anxiety related to the owner's departure [3]: statistically significant treatment effect in favor of tasipimidine
- marked ataxia or clinical sedation (dogs): did not produce marked ataxia or clinical sedation
